Key:
Ki-67 = Ki-67 staining of outflow vein, simvastatin; assay type: in vivo, mice; conditions: vs control
Description: Multiple serial four-micrometer sections were stained and analyzed. Cellular proliferation was determined by staining for Ki-67 on sections removed from the outflow vein for simvastatin treated vessels or control groups. Smooth muscle density (α-SMA) or proliferation index (Ki-67) was determined by staining on sections removed from the outflow vein by performing quantification at the different time points. Immunohistochemistry for Ki-67 and α-SMA was performed on paraffin-embedded sections from the outflow vein after transfection with either simvastatin or controls using the Vectastain Elite ABC system (Vector Laboratories, Burlingame, Calif., USA). The following antibodies were used: mouse monoclonal antibody Ki-67 (DAKO, Carpentaria, Calif.; 1:400) or rabbit polyclonal antibody to mouse for α-SMA (Abcam, Cambridge, Mass.; 1:400).
(§1) Morphometric analysis was performed as described elsewhere (Misra et al., Kidney Int., 68:2890-2900 (2005); and Misra et al., Am. J. Physiol. Heart Circ. Physiol., 294:H2219-2230 (2008)). Briefly, the outflow vein was sectioned into multiple contiguous 4-μm paraffin embedded sections. Typically, 2 to 3 sections per animal for each group (simvastatin and controls) and time point (day 14 and day 28) were photographed and then quantified using KS 400 (Carl Zeiss, Inc., Thornwood, N.Y.) semiquantitative program.

α-SMA = test: Western blot of α-SMA in NIH 3T3 cells, simvastatin; assay type: cell-based; conditions: 10 μM, 24 hours of hypoxia, vs control
Description: (§2) One hundred thousand NIH 3T3 cells were treated with simvastatin (1 μM, 5 μM, or 10 μM) or controls and made hypoxic for 24 hours as described elsewhere (Misra et al., J. Vasc. Interv. Radiol., 21:896-902 (2010)).
The differentiation of fibroblasts to myofibroblasts was assessed by performing Western blot analysis for α-SMA. The cultured cells were processed for Western analysis using rabbit polyclonal antibody as described elsewhere (Misra et al., J. Vasc. Interv. Radiol., 19:252-259 (2008)).

caspase 3 = test: Caspase 3 activity in NIH 3T3 cells, simvastatin; assay type: cell-based; conditions: 24 hours hypoxia
Description: as §2
Apoptosis was assessed using an ELISA assay for caspase 3. Cellular protein was extracted from one hundred thousand cultured cells as described elsewhere (Misra et al., J. Vasc. Interv. Radiol., 21:896-902 (2010)). The enzymatic activity of caspase 3 was accessed by Caspase Glo assay (G811C, Promega, Madison, Wis.).

HIF-1α = test: RT-PCR for HIF-1α at outflow vein, simvastatin; assay type: in vivo, mice; conditions: for average reduction of HIF-1α gene expression: vs control
Description: (§3) Animals were housed at 22° C. temperature, 41% relative humidity, and 12-/12-hour light/dark cycles. Animals were allowed access to water and food ad libitum. […] Sixty-eight male C57BL/6 mice (Jackson Laboratories, Bar Harbor, Me.) weighing 25-30 grams were used for the present study (FIG. 18). Chronic kidney disease was created by surgical removal of the right kidney accompanied by ligation of the arterial blood supply to the upper pole of the left kidney as described elsewhere (Misra et al., J. Vasc. Interv. Radiol., 21:1255-1261 (2010); see, also, FIG. 18A). Three weeks after nephrectomy, the animals were started on simvastatin (40 mg/kg administered i.p. three times per week) or PBS (equal amount of volume used for simvastatin i.p. controls). Simvastatin was prepared as described elsewhere (Wilson et al., Arterioscler Thromb. Vasc. Biol., 21:122-128 (2001)). A week later, an AVF was created by connecting the right carotid artery to the ipsilateral jugular vein (FIG. 18B; see, also, Misra et al., J. Vasc. Interv. Radiol., 21:1255-1261 (2010) and Yang et al., J. Vasc. Interv. Radiol., 20:946-950 (2009)). Animals were sacrificed at day 7, day 14, and day 28 following AVF placement for real time polymerase chain reaction (RT-PCR) and histomorphometric analyses (FIG. 18C). Serum BUN and creatinine were measured by removing blood from the tail vein at baseline (before nephrectomy), at AVF creation, and at the time of sacrifice. […] These animals were started on simvastatin (40 mg/kg i.p.) or PBS (equal amount of volume i.p.) every other day one week before AVF placement and then sacrificed four weeks after fistula placement for histomorphometric analysis.
(§4) The tissue was stored in RNA stabilizing reagent (Qiagen, Gaithersburg, Md.) as per the manufacturer's guidelines. To isolate the RNA, the specimens were homogenized, and total RNA was isolated using RNeasy mini kit (Qiagen) (Misra et al., J. Vasc. Interv. Radiol., 21:1255-1261 (2010); and Yang et al., J. Vasc. Interv. Radiol., 20:946-950 (2009)).
(§5) Expression for the gene of interest was determined using RT-PCR analysis as described elsewhere (Misra et al., J. Vasc. Interv. Radiol., 21:1255-1261 (2010)). Commercial PCR primers for the gene of interest were purchased from SA Biosciences (Frederick, Md.).

MMP-9 [1] = test: RT-PCR for MMP-9 in kidneys, simvastatin; assay type: in vivo, mice
Description: as §3, §4, §5

MMP-9 [2] = test: RT-PCR for MMP-9 at outflow vein, simvastatin; assay type: in vivo, mice
Description: as §3, §4, §5

NIH 3T3 cells [3] = test: Cell migration (matrigel invasion) assay in NIH 3T3 cells, simvastatin; assay type: cell-based
Description: as §2
NIH 3T3 cells were synchronized for 24 hours in serum free media. Next, one hundred thousand NIH 3T3 cells were treated with simvastatin or controls and seeded in 8-micron trans-wells that were pre-coated with low growth factor matrigel in a serum free media. The complete media was supplemented under the trans-well and incubated for 6 hours at 37° C. After 6 hours, trans-wells were washed with PBS and fixed with paraformaldehye (4% v/v). Finally, trans-wells were stained with bromophenol (0.1%) solution. The cells from upper side were removed with cotton tip applicators. The cells at bottom side were counted for analysis.

[4] = tested on: apoptosis at the outflow vein; test: TUNEL staining of outflow vein, simvastatin; assay type: in vivo, mice; conditions: for average increase of TUNEL staining: vs control
Description: TUNEL staining was performed on paraffin-embedded sections from the outflow vein after treatment with either simvastatin or controls as specified by the manufacturer (DeadEnd Colorimetric tunnel assay system, G7360, Promega, Madison, Wis.).
as §1

[5] = tested on: hypoxic changes in the outflow vein; test: Hypoxyprobe staining of outflow vein, simvastatin; assay type: in vivo, mice; conditions: for average reduction of hypoxyprobe staining: vs control
Description: Hypoxic changes were assessed in the outflow vein of simvastatin treated vessels or control groups using Hypoxyprobe™-1 (EMD Millipore, Billerica, Mass.), a substituted derivative of pimonidazole hydrochloride. Hypoxyprobe™-1 upon activation forms stable covalent adducts with thiol groups of polypeptides and amino acids of hypoxic tissue. Mice were injected with 60 mg/kg Hypoxyprobe™-1 i.p. Thirty minutes following injection, mice were sacrificed, and outflow veins were dissected and fixed as specified for histological analysis. Four-micrometer thick paraffin embedded sections were stained with the anti-hypoxyprobe-1 Ab as per the manufacturer's directions.

VEGF-A [6] = test: RT-PCR for VEGF-A in kidneys, simvastatin; assay type: in vivo, mice
Description: Animals were housed at 22° C. temperature, 41% relative humidity, and 12-/12-hour light/dark cycles. Animals were allowed access to water and food ad libitum. […] Sixty-eight male C57BL/6 mice (Jackson Laboratories, Bar Harbor, Me.) weighing 25-30 grams were used for the present study (FIG. 18). Chronic kidney disease was created by surgical removal of the right kidney accompanied by ligation of the arterial blood supply to the upper pole of the left kidney as described elsewhere (Misra et al., J. Vasc. Interv. Radiol., 21:1255-1261 (2010); see, also, FIG. 18A). Three weeks after nephrectomy, the animals were started on simvastatin (40 mg/kg administered i.p. three times per week) or PBS (equal amount of volume used for simvastatin i.p. controls). Simvastatin was prepared as described elsewhere (Wilson et al., Arterioscler Thromb. Vasc. Biol., 21:122-128 (2001)). […] Serum BUN and creatinine were measured by removing blood from the tail vein at baseline (before nephrectomy), at AVF creation, and at the time of sacrifice. […]
Expression for the gene of interest was determined using RT-PCR analysis as described elsewhere (Misra et al., J. Vasc. Interv. Radiol., 21:1255-1261 (2010)). […]

NIH 3T3 cells [7] = test: Proliferation (thymidine incorporation) assay in NIH 3T3 cells, simvastatin; assay type: cell-based
Description: as §2
One hundred thousand NIH 3T3 cells were treated with simvastatin or controls and made hypoxic for 24 hours. Next, they were seeded in a 6-well plate and cultured for 24 hours in DMEM medium. After 20 hours, […] of (^3H) thymidine was added to each well. Four hours later, the cells were washed with chilled PBS, fixed with 100% cold methanol, and collected for measurement of trichloroacetic acid-precipitable for radioactivity. Experiments were repeated three times for each time point.

VEGF-A [8] = test: RT-PCR for VEGF-A at outflow vein, simvastatin; assay type: in vivo, mice
Description: as §3, §4, §5

CCC(C)(C)C(=O)O[C@H]1C[C@@H](C)C=C2C=C[C@H](C)[C@H](CC[C@@H]3C[C@@H](O)CC(=O)O3)[C@H]21 [simvastatin]
average reduction of Ki-67 density (Ki-67; day 14): 66%
average reduction of Ki-67 density (Ki-67; day 28): 76%
average reduction of Ki-67 density (Ki-67; day 28 normal): 77%
Average reduction in α-SMA production (Western blot) (α-SMA): 56%
average increase in caspase 3 activity (caspase 3; 5 μM): 281%
average increase in caspase 3 activity (caspase 3; 10 μM): 1103%
mean gene expression of HIF-1α (HIF-1α; day 7): 0.45±0.12
average reduction of HIF-1α gene expression (HIF-1α; day 7): 54%
mean gene expression of HIF-1α (HIF-1α; day 14): 0.34±0.04
average reduction of HIF-1α gene expression (HIF-1α; day 14): 54%
average gene expression of MMP-9 (MMP-9 [1]; day 7): 0.42±0.13
Average reduction of MMP-9 gene expression (MMP-9 [1]; day 7, vs control): 57%
average gene expression of MMP-9 (MMP-9 [1]; day 28): 0.64±0.09
Average reduction of MMP-9 gene expression (MMP-9 [1]; day 28, vs control): 44%
average gene expression of MMP-9 (MMP-9 [2]; day 7): 0.19±0.03
Average reduction of MMP-9 gene expression (MMP-9 [2]; day 7, vs control): 69%
average gene expression of MMP-9 (MMP-9 [2]; day 14): 0.37±0.02
Average reduction of MMP-9 gene expression (MMP-9 [2]; day 14, vs control): 41%
average reduction of migratory capacity (NIH 3T3 cells [3]; 5 μM, 24 hours hypoxia): 47%
average reduction of migratory capacity (NIH 3T3 cells [3]; 5 μM, 24 hours normoxia): 32%
average reduction of migratory capacity (NIH 3T3 cells [3]; 10 μM, 24 hours hypoxia): 62%
average reduction of migratory capacity (NIH 3T3 cells [3]; 10 μM, 24 hours normoxia): 50%
average density of cells staining positive for TUNEL ([4]; day 14): 25.26±2.78
average increase of TUNEL staining ([4]; day 14): 366%
average density of cells staining positive for TUNEL ([4]; day 28): 30.17±1.8
average increase of TUNEL staining ([4]; day 28): 561%
increase of TUNEL staining ([4]; day 28 normal, vs control (P=0.0136)): 326%
average density of hypoxyprobe staining ([5]; day 14): 18.33±2.06
average reduction of hypoxyprobe staining ([5]; day 14): 53%
average density of hypoxyprobe staining ([5]; day 28): 13.01±4.62
average reduction of hypoxyprobe staining ([5]; day 28): 70%
reduction of hypoxyprobe staining ([5]; day 28 normal, vs control (P=0.0103)): 72%
average gene expression of VEGF-A (VEGF-A [6]; day 28): 1±0.02
Average reduction of VEGF-A gene expression (VEGF-A [6]; day 28, vs control): 24%
average reduction in proliferative ability (NIH 3T3 cells [7]; 5 μM, 24 hours hypoxia): 83%
average reduction in proliferative ability (NIH 3T3 cells [7]; 5 μM, 24 hours normoxia): 75%
average reduction in proliferative ability (NIH 3T3 cells [7]; 10 μM, 24 hours hypoxia): 92%
average reduction in proliferative ability (NIH 3T3 cells [7]; 10 μM, 24 hours normoxia): 94%
mean gene expression of VEGF-A (VEGF-A [8]; day 7): 0.58±0.06
Average reduction of VEGF-A gene expression (VEGF-A [8]; day 7, vs control): 44%
